Experimental data: patent publication US12686690B2, “Macrocyclic urea orexin receptor agonists” (Merck Sharp & Dohme LLC, priority 2020, dated 2026)

Molecular target: T1, hOX2R (Homo sapiens, UniProt O43614)
T1 construct: expressed in transfected cells; host or cells: CHO cells (G418 selection)
T1 sequence (O43614 1-444): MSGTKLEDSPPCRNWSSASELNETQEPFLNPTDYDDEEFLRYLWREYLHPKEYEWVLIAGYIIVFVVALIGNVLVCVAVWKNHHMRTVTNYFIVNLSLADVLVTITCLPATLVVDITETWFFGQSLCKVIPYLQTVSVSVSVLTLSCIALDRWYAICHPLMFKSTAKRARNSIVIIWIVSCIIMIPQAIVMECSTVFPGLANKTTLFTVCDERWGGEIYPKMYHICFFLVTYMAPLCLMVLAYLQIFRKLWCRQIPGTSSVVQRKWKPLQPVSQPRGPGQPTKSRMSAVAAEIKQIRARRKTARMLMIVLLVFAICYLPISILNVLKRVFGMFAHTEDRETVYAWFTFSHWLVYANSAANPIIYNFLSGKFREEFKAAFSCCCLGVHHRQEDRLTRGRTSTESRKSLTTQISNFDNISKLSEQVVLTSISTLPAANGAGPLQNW
Assay: hOX2R IPone assay (orexin receptor agonism)
Type: cell-based
Conditions: IPone readout; for hOX2R_Ipone max %act: maximal activation; for EC50: orexin receptor agonist, read-out: hOX2R_IPone EC50

Row | hOX2R_Ipone max %act [%] | EC50 [nM] | Compound
1 | 97.9 | 167 | CCN1C(=O)N[C@@H](CCC(F)(F)F)CCCCCOc2nc(cn3ccnc23)C2=NC=C(S2)C1C (single isomer, unassigned) [Example 94A]
2 | 99.5 | 42.9 | CCN1C(=O)N[C@@H](CCC(F)(F)F)CCCCOc2nc(cn3ccnc23)-c2ccnc(c2)[C@@H]1C [Example 29A, (12S,16R)-13-ethyl-12-methyl-16-(3,3,3-tri-fluoropropyl)-12,13,15,16,17, 18,19,20-octahydro-14H-6,22-(azeno)-11,7-(metheno) imidazo[2,1-c][1,4,10,13,15] oxatetraazacyclo-icosin-14-one]
3 | 104.4 | 36.4 | CCN1C(=O)NC(CC(F)(F)CC)CCOCCOc2cn3ncnc3c(n2)-c2cc(ncc2C)C1C [Example 122, (3R,E)-7-(2,2-difluorobutyl)-4-ethyl-25,3-dimethyl-10,13-dioxa-4,6-diaza-1(6,8)-[1,2,4]triazolo[1,5-a]pyrazina-2(4,2)-pyridinacyclotridecaphan-5-one]
4 | 100.5 | 0.6 | CCN1C(=O)N[C@@H](CCC(F)(F)F)CCCCCOc2cc(cn3ccnc23)-c2cc(cnc2OC)[C@H]1C [Example 91, (12R,16R)-13-ethyl-8-methoxy-12-methyl-16-(3,3,3-trifluoropropyl)-12,13,16,17,18,19,20, 21-octahydro-6,23:11,7-di(metheno) imidazo[2,1-c][1,4,9, 13,15]oxatetraazacyclo-henicosin-14(15H)-one]
5 | 99.4 | 13.9 | CCN1C(=O)NCC(C(F)(F)F)N(C)CCCOc2nc(cn3ccnc23)-c2cccc(c2)C1C [Example 26A, (3R,E)-4-ethyl-3,9-dimethyl-8-(trifluoromethyl)-13-oxa-4,6,9-triaza-1(6,8)-imidazo[1,2-a]pyrazina-2(1,3)-benzenacyclotridecaphan-5-one]
6 | 100.6 | 8.6 | CCN1C(=O)NC(CCOC(F)(F)F)CCCCCOc2nc(cn3ccnc23)-c2cc(ncc2OC)[C@H]1C (single isomer, unassigned) [Example 73A]
7 | 98.9 | 0.85 | CCN1C(=O)NC(CCOC(F)F)CCCCCOc2nc(cn3ccnc23)-c2cc(ncc2OC)[C@H]1C (stereo partly drawn) [Example 182, (3R,E)-7-(2-(difluoromethoxy)ethyl)-4-ethyl-25-methoxy-3-methyl-13-oxa-4,6-diaza-1(6,8)-imidazo[1,2-a]pyrazina-2(4,2)-pyridinacyclotridecaphan-5-one]
8 | 111.8 | 3.36 | CCN1C(=O)N[C@@H](CCC(C)(F)F)CCOCCOc2nc(cc3ncnn23)-c2cc(ncc2OC)[C@H]1C [Example 169, (3R,E)-7-(3,3-difluorobutyl)-4-ethyl-25-methoxy-3-methyl-10,13-dioxa-4,6-diaza-1(7,5)-[1,2,4]triazolo[1,5-c]pyrimidina-2(4,2)-pyridinacyclotridecaphan-5-one]
9 | 101.8 | 6.44 | CCN1C(=O)NC2CN(CCCOc3nc(cn4ccnc34)-c3cccc(c3)[C@H]1C)CC2(F)F (mixture of isomers) [Example 213, (3R,E)-4-ethyl-7^4,7^4-difluoro-3-methyl-11-oxa-4,6-diaza-1(6,8)-imidazo[1,2-a]pyrazina-7(3,1)-pyrrolidina-2(1,3)-benzenacycloundecaphan-5-one]
10 | 109.6 | 1.11 | CCN1C(=O)N[C@@H](CCC(F)(F)F)CCCCCOc2cc(nn3ccnc23)-c2cc(ncc2OC)[C@H]1C [Example 149, (3R,7R,E)-4-ethyl-25-methoxy-3-methyl-7-(3,3,3-trifluoropropyl)-13-oxa-4,6-diaza-1(6,8)-imidazo[1,2-b]pyridazina-2(4,2)-pyridinacyclotridecaphan-5-one]
11 | 100.5 | 62.5 | CCN1C(=O)NCCCCCCCOc2nc(cn3ccnc23)-c2cc(ncc2OC)[C@H]1C [Example 177, (R,E)-4-ethyl-25-methoxy-3-methyl-14-oxa-4,6-diaza-1(6,8)-imidazo[1,2-a]pyrazina-2(4,2)-pyridinacyclo-tetradecaphan-5-one]
12 | 104.4 | 10.9 | CCN1C(=O)N[C@@H](CCC(F)(F)F)C/C=C/CCOc2nc(cc3cccnc23)-c2cc(ncc2OC)[C@H]1C [Example 163, (3R,7S,E)-4-ethyl-25-methoxy-3-methyl-7-(3,3,3-trifluoropropyl)-13-oxa-4,6-diaza-1(6,8)-naphthyridina-2(4,2)-pyridinacyclotridecaphan-9-en-5-one]
13 | 99.62 | 1.1 | (9R,13R,E)-14-Cyclopropyl-12-ethyl-13-methyl-9-(3,3,3-trifluoropropyl)-3-oxa-10,12-diaza-1(5,2)-thiazola-2(6,8)-imidazo[1,2-a]pyrazinacyclotridecaphan-11-one [Example 209]
14 | 97.96 | 3.99 | CCN1C(=O)N[C@@H](CCC(F)(F)F)CCCCCOc2nc(nn3c(C)cnc23)-c2cc(ncc2OC)[C@H]1C [Example 124, (3R,7R,E)-4-ethyl-25-methoxy-17,3-dimethyl-7-(3,3,3-trifluoropropyl)-13-oxa-4,6-diaza-1(2,4)-imidazo[2,1-f][1,2,4]triazina-2(4,2)-pyridinacyclotridecaphan-5-one]
15 | 100.6 | 14.9 | CCN1C(=O)N[C@@H](CCC(F)(F)F)CCCCCOc2nc(cn3ccnc23)C2=CN=C(O2)C1C (stereo partly drawn) [Example 108, (15R)-12-ethyl-11-methyl-15-(3,3,3-trifluoropropyl)-11,12,15,16,17,18,19, 20-octahydro-6,22-(azeno)-7,10-epoxyimidazo[2,1-c][1,4,9,12,14]oxatet-raazacycloicosin-13(14H)-one]
16 | 100.7 | 4.66 | CCN1C(=O)N[C@@H](CCC(F)(F)F)CCC(O)CCOc2nc(cn3ccnc23)-c2cc(cnc2C)[C@H]1C (single isomer, unassigned) [Example 137]
17 | 99.83 | 1.13 | CCN1C(=O)N[C@@H](CCC(F)(F)F)CCCCCOc2nc(cn3ccnc23)C2=C(C3CC3)N=C(O2)[C@H]1C [Example 211, (9R,13R,E)-14-Cyclopropyl-12-ethyl-13-methyl-9-(3,3,3-trifluoropropyl)-3-oxa-10,12-diaza-1(5,2)-oxazola-2(6,8)-imidazo[1,2-a]pyrazinacyclotridecaphan-11-one]
18 | 100.9 | 0.46 | CCN1C(=O)NC(C2CC2(F)F)CCCCCOc2nc(cn3ccnc23)-c2cc(ncc2OC)[C@H]1C (stereo partly drawn) [Example 192, (3R,E)-7-(2,2-difluorocyclopropyl)-4-ethyl-25-methoxy-3-methyl-13-oxa-4,6-diaza-1(6,8)-imidazo[1,2-a]pyrazina-2(4,2)-pyridinacyclotri-decaphan-5-one]
19 | 101.1 | 0.7 | CCN1C(=O)NC(CC2(C(F)(F)F)CC2)CCCCCOc2nc(cn3ccnc23)-c2cc(ncc2OC)[C@H]1C (single isomer, unassigned) [Example 66B]
20 | 99.7 | 4.5 | CCN1C(=O)N[C@@H](CCC(F)(F)F)CCCCOc2nc(cn3ccnc23)-c2ccnc(c2)[C@H]1C [Example 29B, (12R,16R)-13-ethyl-12-methyl-16-(3,3,3-trifluoropropyl)-12,13,15,16,17, 18,19,20-octahydro-14H-6,22-(azeno)-11,7-(metheno) imidazo[2,1-c][1,4,10,13,15] oxatetraazacyclo-icosin-14-one]
21 | 64.2 | 1010 | CCN1C(=O)NCc2nc(no2)CCOc2nc(cn3ccnc23)-c2cccc(c2)[C@H]1C [Example 23, (R,27E,64Z)-10-ethyl-11-methyl-3-oxa-8,10-diaza-6(3,5)-oxadiazola-2(6,8)-imidazo[1,2-a]pyrazina-1(1,3)-benzenacyclo-undecaphan-9-one]
22 | 101.1 | 1.4 | CCN1C(=O)N[C@@H](CCC(F)(F)F)CCCCOc2nc(cn3ccnc23)-c2cc(cnc2OC)[C@H]1C [Example 27, (3R,7R,E)-4-ethyl-22-methoxy-3-methyl-7-(3,3,3-trifluoropropyl)-12-oxa-4,6-diaza-1(6,8)-imidazo[1,2-a]pyrazina-2(3,5)-pyridinacyclododecaphan-5-one]
23 | 89.95 | 271 | CCN1C(=O)N[C@@H](CCC(F)(F)F)CCCCCOc2nc(cn3ccnc23)-c2ccnc(c2)C1(C)C [Example 143, (R,E)-4-ethyl-3,3-dimethyl-7-(3,3,3-trifluoropropyl)-13-oxa-4,6-diaza-1(6,8)-imidazo[1,2-a]pyrazina-2(4,2)-pyridinacyclotridecaphan-5-one]

Row | Compound | hOX2R_Ipone max %act [%] | EC50 [nM]
24 | CCN1C(=O)NCCC2CCC(C2)Oc2nc(cn3ccnc23)-c2cccc(c2)C1C [Example 1B, (10R,E)-9-ethyl-10-methyl-3-oxa-7,9-diaza-2(6,8)-imidazo[1,2-a]pyrazina-1(1,3)-benzena-4(1,3)-cyclopentanacyclodecaphan-8-one] | 99.5 | 126
25 | CCN1C(=O)NCCCN2CCCC2COc2nc(cn3ccnc23)-c2cccc(c2)[C@H]1C (mixture of isomers) [Example 4, (12R)-13-ethyl-12-methyl-12,13,15,16,17,18,21,22,22a, 23-decahydro-14H,20H-6,25-(azeno)-11,7-(metheno)imidazo[1,2-s]pyrrolo[2,1-c][1,4,8,10,19]oxatetraaza-cyclohenicosin-14-one] | 79.4 | 3840
